The values that follow come from patent US20130244999A1, “Substituted Heterocyclic Compounds” (Incyte Corporation, priority 2008, published 2013).

The target of this experiment is T1, histamine H4 receptor (Homo sapiens, UniProt Q9H3N8).
T1 construct: expressed in transfected cells; host or cells: HEK293SFM cells (membrane preparation)
The experiment in a line: Inhibition of histamine H4 receptor (Table A1; H4 membrane binding assay). To be noted: for IC50: histamine H4 receptor, "> a" = exceeds experiment limit. A digest of the protocol: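 Membranes came from recombinant HEK293SFM cells expressing human H4, homogenized in 50 mM Tris-HCl pH 7.5 with protease inhibitors. Nonspecific binding was set with 1000× unlabeled ligand. Bound radioligand was separated on PEI-treated GF/B filters and counted by liquid scintillation.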

T1 sequence (Q9H3N8 whole entry): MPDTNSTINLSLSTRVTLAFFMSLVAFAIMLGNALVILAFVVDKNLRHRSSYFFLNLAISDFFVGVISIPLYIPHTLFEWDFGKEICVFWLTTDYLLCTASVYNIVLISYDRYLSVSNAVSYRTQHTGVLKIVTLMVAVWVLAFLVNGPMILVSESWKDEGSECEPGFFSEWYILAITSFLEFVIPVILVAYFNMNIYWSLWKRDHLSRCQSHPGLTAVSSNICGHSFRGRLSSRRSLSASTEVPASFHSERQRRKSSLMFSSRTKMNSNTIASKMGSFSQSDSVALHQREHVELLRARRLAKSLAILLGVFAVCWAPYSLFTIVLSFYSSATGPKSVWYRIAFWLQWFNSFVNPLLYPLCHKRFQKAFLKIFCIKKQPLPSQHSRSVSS

For orientation: IC50 means the concentration needed to halve the response being measured. In turn, `CN1CCN(c2cc(N3CCc4ccc(-c5cnn(C)c5)cc4C3)nc(N)n2)CC1` [Example 4, 4-(4-Methylpiperazin-1-yl)-6-[7-(1-methyl-1H-pyrazol-4-yl)-3,4-dihydroisoquinolin-2(1H)-yl]pyrimidin-2-amine] yielded an IC50 of 80 nM.

`CN1CCN(c2cc(-c3ccc4c(c3)CN(c3cc(N5CCN(C)CC5)nc(N)n3)CC4)ccn2)CC1` [Example 5, 4-(4-Methylpiperazin-1-yl)-6-[7-[2-(4-methylpiperazin-1-yl)pyridin-4-yl]-3,4-dihydroisoquinolin-2(1H)-yl]pyrimidin-2-amine] returned a half-inhibitory concentration (IC50) of 128 nM.

Consider `CN1CCN(c2cc(N3CCc4ccc(-c5cnc(Cl)c(F)c5)cc4C3)nc(N)n2)CC1` [Example 6, 4-[7-(6-Chloro-5-fluoropyridin-3-yl)-3,4-dihydroisoquinolin-2(1H)-yl]-6-(4-methylpiperazin-1-yl)pyrimidin-2-amine], for which the IC50 is 61 nM.

Turning to `CN1CCN(c2cc(N3CCc4ccc(-c5cnc(C#N)c(F)c5)cc4C3)nc(N)n2)CC1` [Example 7, 5-{2-[2-Amino-6-(4-methylpiperazin-1-yl)pyrimidin-4-yl]-1,2,3,4-tetrahydroisoquinolin-7-yl}-3-fluoropyridine-2-carbonitrile], the IC50 stood at 76 nM.

A word on the inhibition: it is the relative decrease from the control value, in per cent. In turn, `CN1CCN(c2cc(N3CCc4ccc(-c5cnc(N6CCN(C(=O)OC(C)(C)C)CC6)nc5)cc4C3)nc(N)n2)CC1` [Example 8, tert-Butyl 4-(5-{2-[2-amino-6-(4-methylpiperazin-1-yl)pyrimidin-4-yl]-1,2,3,4-tetrahydroisoquinolin-7-yl}pyrimidin-2-yl)piperazine-1-carboxylate] gave an inhibition at 1 µM of 35% and an IC50 of more than 1000 nM.

Consider `CN1CCN(c2cc(N3CCc4ccc(-c5cnc(N6CCNCC6)nc5)cc4C3)nc(N)n2)CC1` [Example 9, 4-(4-Methylpiperazin-1-yl)-6-[7-(2-piperazin-1-yipyrimidin-5-yl)-3,4-dihydroisoquinolin-2(1H)-yl]pyrimidin-2-amine], for which the IC50 worked out at 89 nM.

For the molecule `CCOc1ccc(Cn2cc(-c3ccc4c(c3)CN(c3cc(N5CCN(C)CC5)nc(N)n3)CC4)cn2)cn1` [Example 10, 4-[7-{1-[(6-Ethoxypyridin-3-yl)methyl]-1H-pyrazol-4-yl}-3,4-dihydroisoquinolin-2(1H)-yl]-6-(4-methylpiperazin-1-yl)pyrimidin-2-amine], the IC50 was found to be 102 nM.

As for `CN1CCN(c2cc(N3CCc4ccc(-c5cnn(C6(CC#N)CCCC6)c5)cc4C3)nc(N)n2)CC1` [Example 11, [1-(4-{2-[2-Amino-6-(4-methylpiperazin-1-yl)pyrimidin-4-yl]-1,2,3,4-tetrahydroisoquinolin-7-yl}-1,1-pyrazol-1-yl)cyclopentyl]acetonitrile], the IC50 was 110 nM.

As for `CN1CCN(c2cc(N3CCc4ccc(-c5cnn(C6CCN(C(=O)OC(C)(C)C)CC6)c5)cc4C3)nc(N)n2)CC1` [Example 12, tert-Butyl 4-(4-{2-[2-amino-6-(4-methylpiperazin-1-yl)pyrimidin-4-yl]-1,2,3,4-tetrahydroisoquinolin-7-yl}-1H-pyrazol-1-yl)piperidine-1-carboxylate], the IC50 came to 489 nM.

`CN1CCN(c2cc(N3CCc4ccc(-c5cnn(C6CCNCC6)c5)cc4C3)nc(N)n2)CC1` [Example 13, 4-(4-Methylpiperazin-1-yl)-6-[7-(1-piperidin-4-yl-1H-pyrazol-4-yl)-3,4-dihydroisoquinolin-2 (1H)-yl]pyrimidin-2-amine] yielded an IC50 of 35 nM.

`CN1CCN(c2cc(N3CCc4ccc(-n5cc(Cl)cn5)cc4C3)nc(N)n2)CC1` [Example 14, 4-[7-(4-Chloro-1,1-pyrazol-1-yl)-3,4-dihydroisoquinolin-2(1H)-yl]-6-(4-methylpiperazin-1-yl)pyrimidin-2-amine] displayed an IC50 of 223 nM.

For the molecule `CN1CCN(c2cc(N3Cc4ccccc4C[C@H]3CO)nc(N)n2)CC1` [Example 15, {(3S)-2-[2-Amino-6-(4-methylpiperazin-1-yl)pyrimidin-4-yl]-1,2,3,4-tetrahydroisoquinolin-3-yl}methanol], the IC50 came out at 145 nM.

Consider `Cc1cccc(Nc2ccc3c(c2)CN(c2cc(N4CCN(C)CC4)nc(N)n2)CC3)n1` [Example 16, 2-[2-Amino-6-(4-methylpiperazin-1-yl)pyrimidin-4-yl]-N-(6-methylpyridin-2-yl)-1,2,3,4-tetrahydroisoquinolin-7-amine], for which the IC50 was found to be 543 nM.

`CN1CCN(c2cc(N3CCc4ccc(Oc5ccccc5Cl)cc4C3)nc(N)n2)CC1` [Example 17, 4-[7-(2-Chlorophenoxy)-3,4-dihydroisoquinolin-2(1H)-yl]-6-(4-methylpiperazin-1-yl)pyrimidin-2-amine] registered a 50% inhibitory concentration (IC50) of 285 nM.

In turn, `CN1CCN(c2cc(N3CCc4ccc(-c5ccc(C(=O)NCc6ccccn6)nc5)cc4C3)nc(N)n2)CC1` [Example 18, 5-{2-[2-Amino-6-(4-methylpiperazin-1-yl)pyrimidin-4-yl]-1,2,3,4-tetrahydroisoquinolin-7-yl}-N-(pyridin-2-ylmethyl)pyridine-2-carboxamide] registered an IC50 of 65 nM.

In turn, `CN1CCN(c2cc(N3CCc4ccc(-c5ccc(C(=O)NCC(C)(C)O)nc5)cc4C3)nc(N)n2)CC1` [Example 19, 5-{2-[2-Amino-6-(4-methylpiperazin-1-yl)pyrimidin-4-yl]-1,2,3,4-tetrahydroisoquinolin-7-yl}-N-(2-hydroxy-2-methylpropyl)pyridine-2-carboxamide] showed an IC50 of 110 nM.

With `CN1CCN(c2cc(N3CCc4ccc(-c5ccc(C(=O)N[C@H]6CC[C@H](O)CC6)nc5)cc4C3)nc(N)n2)CC1` [Example 20, 5-{2-[2-Amino-6-(4-methylpiperazin-1-yl)pyrimidin-4-yl]-1,2,3,4-tetrahydroisoquinolin-7-yl}-N-(trans-4-hydroxycyclohexyl)pyridine-2-carboxamide], the IC50 came out at 113 nM.

For `CN1CCN(c2cc(N3CCCc4ccc(O)cc43)nc(N)n2)CC1` [Example 21, 1-[2-Amino-6-(4-methylpiperazin-1-yl)pyrimidin-4-yl]-1,2,3,4-tetrahydroquinolin-7-ol], the IC50 turned out to be 181 nM.

`CN1CCN(c2cc(N3CCc4ccc(Oc5ccc(C#N)c(Cl)c5)cc4C3)nc(N)n2)CC1` [Example 22, 4-({2-[2-Amino-6-(4-methylpiperazin-1-yl)pyrimidin-4-yl]-1,2,3,4-tetrahydroisoquinolin-7-yl}oxy)-2-chlorobenzonitrile] had an IC50 of 367 nM.

`CN1CCN(c2cc(N3Cc4ccccc4CC3=O)nc(N)n2)CC1` [Example 23, 2-[2-Amino-6-(4-methylpiperazin-1-yl)pyrimidin-4-yl]-1,4-dihydroisoquinolin-3(2H)-one] had an IC50 of 158 nM.

`CN1CCN(c2cc(N3CCc4ccc(C(=O)N5CCC(c6ccccc6)C5)cc4C3)nc(N)n2)CC1` (centres unmarked) [Example 24, 4-(4-Methylpiperazin-1-yl)-6-[7-[(3-phenylpyrrolidin-1-yl)carbonyl]-3,4-dihydroisoquinolin-2(1H)-yl]pyrimidin-2-amine]: the IC50 worked out at 966 nM.

The molecule `CN1CCN(c2cc(N3CCc4ccc(C(=O)N(C)Cc5cccc(F)c5)cc4C3)nc(N)n2)CC1` [Example 25, 2-[2-Amino-6-(4-methylpiperazin-1-yl)pyrimidin-4-yl]-N-(3-fluorobenzyl)-N-methyl-1,2,3,4-tetrahydroisoquinoline-7-carboxamide] returned an IC50 of 260 nM.
